Measurements taken from ChEMBL document CHEMBL2086385, “Synthesis and antimicrobial evaluation of L-phenylalanine-derived C5-substituted rhodanine and chalcone derivatives containing thiobarbituric acid or 2-thioxo-4-thiazolidinone” (2012).
≈ marks a conversion by molar mass, not a printed value.

Key:
Type in all cases: functional
[1] = test system: Staphylococcus aureus; test: Antibacterial activity against Staphylococcus aureus KCTC 209 after 24 hrs by broth microdilution method; settings: KCTC 209, 24 h
[2] = test system: Staphylococcus aureus; test: Antibacterial activity against Staphylococcus aureus RN4220 after 24 hrs by broth microdilution method; settings: RN4220, 24 h
[3] = test system: Staphylococcus aureus; test: Antibacterial activity against quinolone-resistant Staphylococcus aureus CCARM 3519 clinical isolate after 24 hrs by broth microdilution method; settings: CCARM 3519, 24 h
[4] = test system: Staphylococcus aureus; test: Antibacterial activity against Staphylococcus aureus KCTC 503 after 24 hrs by broth microdilution method; settings: KCTC 503, 24 h
[5] = test system: Staphylococcus aureus; test: Antibacterial activity against methicillin-resistant Staphylococcus aureus CCARM 3506 clinical isolate after 24 hrs by broth microdilution method; settings: CCARM 3506, 24 h
[6] = test system: Staphylococcus aureus; test: Antibacterial activity against quinolone-resistant Staphylococcus aureus CCARM 3505 clinical isolate after 24 hrs by broth microdilution method; settings: CCARM 3505, 24 h
[7] = test system: Escherichia coli; test: Antibacterial activity against Escherichia coli CCARM 1356 after 24 hrs by broth microdilution method; settings: CCARM 1356, 24 h
[8] = test system: Staphylococcus aureus; test: Antibacterial activity against methicillin-resistant Staphylococcus aureus CCARM 3167 clinical isolate after 24 hrs by broth microdilution method; settings: CCARM 3167, 24 h

| Structure (SMILES) | MIC [1] | MIC [2] | MIC [3] | MIC [4] | MIC [5] | MIC [6] | MIC [7] | MIC [8] |
| --- | --- | --- | --- | --- | --- | --- | --- | --- |
| O=Cc1ccc(/C=C/C(=O)c2ccc(Cl)cc2Cl)cc1 | > 64 µg/mL | > 64 µg/mL | > 64 µg/mL | > 64 µg/mL | > 64 µg/mL | > 64 µg/mL | > 64 µg/mL | > 64 µg/mL |
| O=Cc1ccc(/C=C/C(=O)c2ccccc2F)cc1 | > 64 µg/mL | > 64 µg/mL | > 64 µg/mL | > 64 µg/mL | > 64 µg/mL | > 64 µg/mL | > 64 µg/mL | > 64 µg/mL |
| O=Cc1ccc(/C=C/C(=O)c2ccc(F)cc2)cc1 | > 64 µg/mL | > 64 µg/mL | > 64 µg/mL | > 64 µg/mL | > 64 µg/mL | > 64 µg/mL | > 64 µg/mL | > 64 µg/mL |
| O=Cc1ccc(/C=C/C(=O)c2ccccc2Cl)cc1 | > 64 µg/mL | > 64 µg/mL | > 64 µg/mL | > 64 µg/mL | > 64 µg/mL | > 64 µg/mL | > 64 µg/mL | > 64 µg/mL |
| O=Cc1ccc(/C=C/C(=O)c2cccc(Cl)c2)cc1 | > 64 µg/mL | > 64 µg/mL | > 64 µg/mL | > 64 µg/mL | > 64 µg/mL | > 64 µg/mL | > 64 µg/mL | > 64 µg/mL |
| O=Cc1ccc(/C=C/C(=O)c2ccc(Cl)cc2)cc1 | > 64 µg/mL | > 64 µg/mL | > 64 µg/mL | > 64 µg/mL | > 64 µg/mL | > 64 µg/mL | > 64 µg/mL | > 64 µg/mL |
| O=Cc1ccc(/C=C/C(=O)c2ccccc2Br)cc1 | > 64 µg/mL | > 64 µg/mL | > 64 µg/mL | > 64 µg/mL | > 64 µg/mL | > 64 µg/mL | > 64 µg/mL | > 64 µg/mL |
| O=Cc1ccc(/C=C/C(=O)c2cccc(Br)c2)cc1 | > 64 µg/mL | > 64 µg/mL | > 64 µg/mL | > 64 µg/mL | > 64 µg/mL | > 64 µg/mL | > 64 µg/mL | > 64 µg/mL |
| O=Cc1ccc(/C=C/C(=O)c2ccc(Br)cc2)cc1 | > 64 µg/mL | > 64 µg/mL | > 64 µg/mL | > 64 µg/mL | > 64 µg/mL | > 64 µg/mL | > 64 µg/mL | > 64 µg/mL |
| Cc1ccc(C(=O)/C=C/c2ccc(C=O)cc2)cc1 | > 64 µg/mL | > 64 µg/mL | > 64 µg/mL | > 64 µg/mL | > 64 µg/mL | > 64 µg/mL | > 64 µg/mL | > 64 µg/mL |
| Cc1ccc(C(=O)/C=C/c2ccc(C=O)cc2)c(C)c1 | > 64 µg/mL | > 64 µg/mL | > 64 µg/mL | > 64 µg/mL | > 64 µg/mL | > 64 µg/mL | > 64 µg/mL | > 64 µg/mL |
| COc1ccccc1C(=O)/C=C/c1ccc(C=O)cc1 | > 64 µg/mL | > 64 µg/mL | > 64 µg/mL | > 64 µg/mL | > 64 µg/mL | > 64 µg/mL | > 64 µg/mL | > 64 µg/mL |
| COc1cccc(C(=O)/C=C/c2ccc(C=O)cc2)c1 | > 64 µg/mL | > 64 µg/mL | > 64 µg/mL | > 64 µg/mL | > 64 µg/mL | > 64 µg/mL | > 64 µg/mL | > 64 µg/mL |
| COc1ccc(C(=O)/C=C/c2ccc(C=O)cc2)cc1 | > 64 µg/mL | > 64 µg/mL | > 64 µg/mL | > 64 µg/mL | > 64 µg/mL | > 64 µg/mL | > 64 µg/mL | > 64 µg/mL |
| CC(=O)Nc1ccc(C(=O)/C=C/c2ccc(C=O)cc2)cc1 | > 64 µg/mL | > 64 µg/mL | > 64 µg/mL | > 64 µg/mL | > 64 µg/mL | > 64 µg/mL | > 64 µg/mL | > 64 µg/mL |
| O=Cc1ccc(/C=C/C(=O)c2ccccc2)cc1 | > 64 µg/mL | > 64 µg/mL | > 64 µg/mL | > 64 µg/mL | > 64 µg/mL | > 64 µg/mL | > 64 µg/mL | > 64 µg/mL |
| O=Cc1ccc(/C=C/C(=O)c2ccc3ccccc3c2)cc1 | > 64 µg/mL | > 64 µg/mL | > 64 µg/mL | > 64 µg/mL | > 64 µg/mL | > 64 µg/mL | > 64 µg/mL | > 64 µg/mL |
| O=Cc1ccc(OCc2cccc(F)c2)cc1 | > 64 µg/mL | > 64 µg/mL | > 64 µg/mL | > 64 µg/mL | > 64 µg/mL | > 64 µg/mL | > 64 µg/mL | > 64 µg/mL |
| O=Cc1ccc(OCc2ccc(F)cc2)cc1 | > 64 µg/mL | > 64 µg/mL | > 64 µg/mL | > 64 µg/mL | > 64 µg/mL | > 64 µg/mL | > 64 µg/mL | > 64 µg/mL |

| Structure (SMILES) | MIC [1] | MIC [2] | MIC [3] | MIC [4] | MIC [5] | MIC [6] | MIC [7] | MIC [8] |
| --- | --- | --- | --- | --- | --- | --- | --- | --- |
| O=Cc1ccc(OCc2ccccc2Cl)cc1 | > 64 µg/mL | > 64 µg/mL | > 64 µg/mL | > 64 µg/mL | > 64 µg/mL | > 64 µg/mL | > 64 µg/mL | > 64 µg/mL |
| O=Cc1ccc(OCc2cccc(Cl)c2)cc1 | > 64 µg/mL | > 64 µg/mL | > 64 µg/mL | > 64 µg/mL | > 64 µg/mL | > 64 µg/mL | > 64 µg/mL | > 64 µg/mL |
| O=Cc1ccc(OCc2ccc(Cl)cc2)cc1 | > 64 µg/mL | > 64 µg/mL | > 64 µg/mL | > 64 µg/mL | > 64 µg/mL | > 64 µg/mL | > 64 µg/mL | > 64 µg/mL |
| O=Cc1ccc(OCc2ccc(Cl)cc2Cl)cc1 | > 64 µg/mL | > 64 µg/mL | > 64 µg/mL | > 64 µg/mL | > 64 µg/mL | > 64 µg/mL | > 64 µg/mL | > 64 µg/mL |
| O=Cc1ccc(OCc2cccc(Br)c2)cc1 | > 64 µg/mL | > 64 µg/mL | > 64 µg/mL | > 64 µg/mL | > 64 µg/mL | > 64 µg/mL | > 64 µg/mL | > 64 µg/mL |
| O=Cc1ccc(OCc2ccc(Br)cc2)cc1 | > 64 µg/mL | > 64 µg/mL | > 64 µg/mL | > 64 µg/mL | > 64 µg/mL | > 64 µg/mL | > 64 µg/mL | > 64 µg/mL |
| Cc1ccc(COc2ccc(C=O)cc2)cc1 | > 64 µg/mL | > 64 µg/mL | > 64 µg/mL | > 64 µg/mL | > 64 µg/mL | > 64 µg/mL | > 64 µg/mL | > 64 µg/mL |
| O=C1NC(=S)NC(=O)C1=Cc1ccc(/C=C/C(=O)c2ccccc2F)cc1 | > 64 µg/mL | > 64 µg/mL | > 64 µg/mL | > 64 µg/mL | > 64 µg/mL | > 64 µg/mL | > 64 µg/mL | > 64 µg/mL |
| O=C1NC(=S)NC(=O)C1=Cc1ccc(/C=C/C(=O)c2ccc(F)cc2)cc1 | > 64 µg/mL | > 64 µg/mL | > 64 µg/mL | > 64 µg/mL | > 64 µg/mL | > 64 µg/mL | > 64 µg/mL | > 64 µg/mL |
| O=C1NC(=S)NC(=O)C1=Cc1ccc(/C=C/C(=O)c2ccccc2Cl)cc1 | > 64 µg/mL | > 64 µg/mL | > 64 µg/mL | > 64 µg/mL | > 64 µg/mL | > 64 µg/mL | > 64 µg/mL | > 64 µg/mL |
| O=C1NC(=S)NC(=O)C1=Cc1ccc(/C=C/C(=O)c2cccc(Cl)c2)cc1 | > 64 µg/mL | > 64 µg/mL | > 64 µg/mL | > 64 µg/mL | > 64 µg/mL | > 64 µg/mL | > 64 µg/mL | > 64 µg/mL |
| O=C1NC(=S)NC(=O)C1=Cc1ccc(/C=C/C(=O)c2ccc(Cl)cc2)cc1 | > 64 µg/mL | > 64 µg/mL | > 64 µg/mL | > 64 µg/mL | > 64 µg/mL | > 64 µg/mL | > 64 µg/mL | > 64 µg/mL |
| O=C1NC(=S)S/C1=C/c1ccc(/C=C/C(=O)c2ccccc2F)cc1 | > 64 µg/mL | > 64 µg/mL | > 64 µg/mL | > 64 µg/mL | > 64 µg/mL | > 64 µg/mL | > 64 µg/mL | > 64 µg/mL |
| O=C1NC(=S)S/C1=C/c1ccc(/C=C/C(=O)c2ccc(F)cc2)cc1 | > 64 µg/mL | > 64 µg/mL | > 64 µg/mL | > 64 µg/mL | > 64 µg/mL | > 64 µg/mL | > 64 µg/mL | > 64 µg/mL |
| O=C1NC(=S)S/C1=C/c1ccc(/C=C/C(=O)c2ccccc2Cl)cc1 | > 64 µg/mL | > 64 µg/mL | > 64 µg/mL | > 64 µg/mL | > 64 µg/mL | > 64 µg/mL | > 64 µg/mL | > 64 µg/mL |
| O=C1NC(=S)S/C1=C/c1ccc(/C=C/C(=O)c2cccc(Cl)c2)cc1 | > 64 µg/mL | > 64 µg/mL | > 64 µg/mL | > 64 µg/mL | > 64 µg/mL | > 64 µg/mL | > 64 µg/mL | > 64 µg/mL |
| O=C1NC(=S)S/C1=C/c1ccc(/C=C/C(=O)c2ccc(Cl)cc2)cc1 | > 64 µg/mL | > 64 µg/mL | > 64 µg/mL | > 64 µg/mL | > 64 µg/mL | > 64 µg/mL | > 64 µg/mL | > 64 µg/mL |
| O=Cc1ccc(OCc2ccccc2)cc1 | > 64 µg/mL | > 64 µg/mL | > 64 µg/mL | > 64 µg/mL | > 64 µg/mL | > 64 µg/mL | > 64 µg/mL | > 64 µg/mL |
| CCn1cc(C(=O)O)c(=O)c2cc(F)c(N3CCNCC3)cc21 [NORFLOXACIN] | 4 µg/mL (≈ 12.5 µM) | 2 µg/mL (≈ 6.26 µM) | > 64 µg/mL | 2 µg/mL (≈ 6.26 µM) | 4 µg/mL (≈ 12.5 µM) | > 64 µg/mL | 16 µg/mL (≈ 50.1 µM) | 8 µg/mL (≈ 25.1 µM) |
